# Key:
# [1] = target: Glutamate NMDA receptor; test: In vitro ability to inhibit the binding of [3H]glycine to glycine binding site of N-methyl-D-aspartate glutamate receptor in rat synaptic membranes; format: cell membranes, Membrane
# [2] = organism: Rattus norvegicus; test: Area under curve in rat plasma; format: ADME, organism-based; conditions: in vivo
# [3] = test system: Rattus norvegicus; test: In vivo neuroprotective activity as reduction of size of gross brain damage in the MCAo model of rats 6 hr after occlusion(post-ischemia) by iv administration at a dose of 0.3 mg/kg; format: functional
# [4] = test system: Rattus norvegicus; test: In vivo neuroprotective activity in the MCAo model of rats 6 hr after occlusion(post-ischemia) by iv administration at a dose of 0.3 mg/kg; format: functional
# [5] = test system: Rattus norvegicus; test: In vivo neuroprotective activity in the MCAo model of rats 6 hr after occlusion(post-ischemia) by iv administration at a dose of 1 mg/kg; format: functional
# [6] = test system: Rattus norvegicus; test: In vivo neuroprotective activity as reduction of size of gross brain damage in the MCAo model of rats 6 hr after occlusion(post-ischemia) by iv administration at a dose of 1 mg/kg; format: functional
# [7] = test system: Mus musculus; test: In vivo neuroprotective activity in the NMDA-induced convulsions in mice after iv administration; format: functional
# [8] = test system: Rattus norvegicus; test: In vivo neuroprotective activity as reduction of size of gross brain damage in the MCAo model of rats 5 min prior to occlusion(pre-ischemia) by iv administration at a dose of 10 mg/kg; format: functional
# [9] = test system: Rattus norvegicus; test: In vivo neuroprotective activity in the MCAo model of rats 5 min prior to occlusion(pre-ischemia) by iv administration at a dose of 0.1 mg/kg; format: functional
# [10] = test system: Rattus norvegicus; test: In vivo neuroprotective activity in the MCAo model of rats 5 min prior to occlusion(pre-ischemia) by iv administration at a dose of 10 mg/kg; format: functional
# [11] = test system: Rattus norvegicus; test: In vivo neuroprotective activity in the MCAo model of rats 5 min prior to occlusion(pre-ischemia) by iv administration at a dose of 0.01 mg/kg; format: functional
# [12] = test system: Rattus norvegicus; test: In vivo neuroprotective activity as reduction of size of gross brain damage in the MCAo model of rats 5 min prior to occlusion(pre-ischemia) by iv administration at a dose of 0.01 mg/kg; format: functional
# [13] = test system: Rattus norvegicus; test: In vivo neuroprotective activity as reduction of size of gross brain damage in the MCAo model of rats 5 min prior to occlusion(pre-ischemia) by iv administration at a dose of 0.1 mg/kg; format: functional
# [14] = test system: Rattus norvegicus; test: In vivo neuroprotective activity in the MCAo model of rats 5 min prior to occlusion(pre-ischemia) by iv administration at a dose of 1 mg/kg; format: functional
# [15] = test system: Rattus norvegicus; test: In vivo neuroprotective activity as reduction of size of gross brain damage in the MCAo model of rats 5 min prior to occlusion(pre-ischemia) by iv administration at a dose of 1 mg/kg; format: functional
compound,measurement,setting,value
O=C(/C=C/c1c(C(=O)O)[nH]c2cc(Cl)cc(Cl)c12)Nc1ccccc1 [GAVESTINEL],Log Ki,[1],-8.52
NC(=O)Cc1ccc(NC(=O)/C=C2\CC(C(=O)O)Nc3cc(Cl)cc(Cl)c32)cc1 (stereo not drawn),Log Ki,[1],-8.18
O=C(O)Cc1ccc(NC(=O)/C=C2\CC(C(=O)O)Nc3cc(Cl)cc(Cl)c32)cc1 (stereo not drawn),Log Ki,[1],-7.72
N#C/C=C/c1ccc(NC(=O)/C=C2\CC(C(=O)O)Nc3cc(Cl)cc(Cl)c32)cc1 (stereo not drawn),Log Ki,[1],-7.73
"CC(=O)Nc1ccc(NC(=O)/C=C2\CC(C(=O)O)Nc3cc(Cl)cc(Cl)c32)cc1 (single isomer, unassigned; (-))",AUC,[2],19800 ng·h/mL
same,Reduction,[3],22.2%
same,Log Ki,[1],-7.3
same,Infarct volume,[4],58.7 mm**3
same,Infarct volume,[5],42.9 mm**3
same,Reduction,[6],43.2%
same,ED50,[7],1.52 mg/kg
NS(=O)(=O)Nc1ccc(NC(=O)/C=C2\CC(C(=O)O)Nc3cc(Cl)cc(Cl)c32)cc1 (stereo not drawn),Log Ki,[1],-8.17
Nc1ccc(NC(=O)/C=C2\CC(C(=O)O)Nc3cc(Cl)cc(Cl)c32)cc1 (stereo not drawn),Log Ki,[1],-7.76
CC(C)C(=O)NCc1ccc(NC(=O)/C=C2\CC(C(=O)O)Nc3cc(Cl)cc(Cl)c32)cc1 (stereo not drawn),Log Ki,[1],-7.78
NC(=O)/C=C/c1ccc(NC(=O)/C=C2\CC(C(=O)O)Nc3cc(Cl)cc(Cl)c32)cc1 (stereo not drawn),Log Ki,[1],-8.15
CS(=O)(=O)Nc1ccc(NC(=O)/C=C2\CC(C(=O)O)Nc3cc(Cl)cc(Cl)c32)cc1 (stereo not drawn),Log Ki,[1],-8.18
COCC(=O)Nc1ccc(NC(=O)/C=C2\CC(C(=O)O)Nc3cc(Cl)cc(Cl)c32)cc1 (stereo not drawn),Log Ki,[1],-8.18
CC(=O)NCc1ccc(NC(=O)/C=C2\CC(C(=O)O)Nc3cc(Cl)cc(Cl)c32)cc1 (stereo not drawn),Log Ki,[1],-8.32
NC(=O)NCc1ccc(NC(=O)/C=C2\CC(C(=O)O)Nc3cc(Cl)cc(Cl)c32)cc1 (stereo not drawn),Log Ki,[1],-8.38
"CC(=O)Nc1ccc(NC(=O)/C=C2\CC(C(=O)O)Nc3cc(Cl)cc(Cl)c32)cc1 (single isomer, unassigned; (+))",AUC,[2],3440 ng·h/mL
same,Reduction,[3],26.3%
same,Log Ki,[1],-8.79
same,Infarct volume,[4],55.6 mm**3
same,Infarct volume,[5],44.4 mm**3
same,Reduction,[6],41.2%
same,ED50,[7],0.31 mg/kg
N#CCc1ccc(NC(=O)/C=C2\CC(C(=O)O)Nc3cc(Cl)cc(Cl)c32)cc1 (stereo not drawn),Log Ki,[1],-8.15
CC(=O)Nc1ccc(NC(=O)/C=C2\CC(C(=O)O)Nc3cc(Cl)cc(Cl)c32)cc1 (stereo in doubt; 3c),AUC,[2],11500 ng·h/mL
same,Reduction,[3],50.3%
same,Reduction,[8],46.1%
same,Log Ki,[1],-8.52
same,Infarct volume,[9],47.8 mm3
same,Infarct volume,[10],39.7 mm3
same,Infarct volume,[11],64.3 mm3
same,Reduction,[12],12.7%
same,Reduction,[13],35.1%
same,Infarct volume,[4],36.6 mm**3
same,Infarct volume,[14],41.8 mm3
same,Reduction,[15],43.3%
same,Infarct volume,[5],29.9 mm**3
same,Reduction,[6],59.4%
same,ED50,[7],0.2 mg/kg
O=C(/C=C1\CC(C(=O)O)Nc2cc(Cl)cc(Cl)c21)Nc1ccccc1 (stereo not drawn),Log Ki,[1],-8.18

# Reference: ChEMBL document CHEMBL1145869, “Enantiomerically pure tetrahydroquinoline derivatives as in vivo potent antagonists of the glycine binding site associated to the NMDA receptor” (Bioorg Med Chem Lett, 2003)
